Patent US20250092017A1, “2-PIPERIDYL OR 2-PYRAZOLYL SUBSTITUTED PYRIMIDINE COMPOUND SERVING AS EGFR INHIBITOR” (SUZHOU PUHE BIOPHARMA CO., LTD., priority 2022, published 2025)
Read-outs that look alike come from different tables or passages of the source.

Experiments:
Ba/F3-FL-EGFR-L858R = Ba/F3-FL-EGFR-L858R (Homo sapiens, UniProt P00533, L858R, cells depend on it); experiment: CellTiter-Glo proliferation, Ba/F3-FL-EGFR-L858R; type: cell-based; conditions: 72 hours, read-out: Ba/F3-FL-EGFR-L858R IC50/nM
Description: (§1) Promega CellTiter-Glo reagent was used to detect the effects of small molecule inhibitors on the proliferation of five Ba/F3 cell lines (Ba/F3-FL-EGFR, Ba/F3-FL-EGFR-L858R, Ba/F3-FL-EGFR-L858R-T790M-C797S, Ba/F3-TEL-EGFR-L858R-C797S and Ba/F3-FL-EGFR-del19-C797S).
(§2) The cell lines were cultured in an incubator at 37° C. and 5% CO2. Cells were passaged regularly and cells in the logarithmic phase were used for plating. 95 μL of cell suspension was added to each well of the cell plate, and culture medium without cells (containing 0.1% DMSO) was added to the Min control wells. Substance addition for compound detection cell plate: 5 μL of 20× compound working solution was added to the cell culture plate as shown in the table below. 50 μL of DMSO-cell culture medium mixture was added to the Max control, with the final DMSO concentration of 0.1%. 5 μL of DMSO-cell culture medium mixture was added to the Max control. The final DMSO concentration was 0.1%.
(§3) The compounds to be tested were added as per the table below
(§4) Cell viability was detected by CellTiter-Glo luminescence assay. Data analysis:
(§5) The cell proliferation inhibition rate (Inhibition Rate) data was processed using the following formula: […]
(§6) wherein: RLUDrug represents the relative luminescence unit of the cells with the addition of drug, RLUMin represents the luminescence unit of the culture medium, and RLUMax represents the relative luminescence unit of the cells with the addition of DMSO.
(§7) The inhibition rates corresponding to different concentrations of compounds were calculated in EXCEL, and then the inhibition rate curve was plotted using GraphPad Prism software and related parameters including the maximum and minimum inhibition rates of cells and IC50 values were calculated.

EGFR (L858R/C797S) = EGFR (L858R/C797S) (Homo sapiens, UniProt P00533, C797S/L858R); experiment: MSA (Mobility Shift Assay) kinase activity, EGFR-L858R-C797S; type: biochemical
Description: (§8) The MSA (Mobility Shift Assay) method was used to detect the effects of small molecule inhibitors on the kinase activity of EGFR wild type and its mutants (EGFR^wt, EGFR-L858R, EGFR-L858R-T790M-C797S, EGFR-L858R-C797S).
(§9) 10 μL of kinase solution at 2.5 times the final concentration was added to the compound wells and positive control Max wells; 10 μL of 1x kinase buffer was added to the negative control Min wells. The mixture was centrifuged at 1000 rpm for 30 seconds, and the reaction plate was shaken to mix the solution well and then incubated at room temperature for 10 minutes. A mixed solution of ATP and kinase substrate at 5/3 times the final concentration was prepared in 1x kinase buffer. 15 μL of a mixed solution of ATP and substrate at 5/3 times the final concentration was added to initiate the reaction. The 384-well plate was centrifuged at 1000 rpm for 30 seconds, and shaken to mix the solution well and then incubated at room temperature for the corresponding time. 30 μL of stop detection solution was added to stop the kinase reaction, and the mixture was centrifuged at 1000 rpm for 30 seconds, and then to mixed well by shaking. The conversion rate was read using Caliper EZ Reader.
(§10) wherein: Conversion %_sample is the conversion rate reading of the sample; Conversion %_min is the mean of the negative control wells, representing the conversion rate reading of the wells without enzyme activity; Conversion %_max is the mean of the positive control wells, representing the conversion rate reading of the wells without compound inhibition.
(§11) The log (inhibitor) vs. response —Variable slope of the analysis software GraphPad Prism 5 was used to fit the dose-effect curve, where the log value of the concentration was used as the X-axis and the percentage inhibition rate was used as the Y-axis, to obtain the IC50 value of each compound on the enzyme activity.
(§12) The calculation formula is Y=Bottom+(Top-Bottom)/(1+10^((Log IC50−X)*Hill Slope))

Ba/F3-FL-EGFR = molecular target: T1, Ba/F3-FL-EGFR (Homo sapiens, UniProt P00533); experiment: CellTiter-Glo proliferation, Ba/F3-FL-EGFR; type: cell-based; conditions: 72 hours, read-out: Ba/F3-FL-EGFR IC50/nM
T1 construct: FL read as full length
Description: as §1, §2, §3, §4, §5, §6, §7

[1] = molecular target: T2, Ba/F3-TEL-EGFR-L858R-C797S (Homo sapiens, UniProt P00533, C797S/L858R, cells depend on it); experiment: CellTiter-Glo proliferation, Ba/F3-TEL-EGFR-L858R-C797S; type: cell-based; conditions: 72 hours, read-out: Ba/F3-TEL-EGFR-L858R-C797S IC50/nM
T2 construct: fused on or other part: N-terminal TEL (ETV6) oligomerising part fused to the EGFR intracellular/kinase part; P41212 (Transcription factor ETV6)
Description: as §1, §2, §3, §4, §5, §6, §7

EGFR (wild-type) = EGFR (wild-type) (Homo sapiens, UniProt P00533); experiment: MSA (Mobility Shift Assay) kinase activity, EGFR wild type; type: biochemical; conditions: read-out: EGFR wt/ IC50/nM
Description: as §8, §9, §10, §11, §12

[2] = molecular target: Ba/F3-FL-EGFR-L858R-T790M-C797S (Homo sapiens, UniProt P00533, T790M/C797S/L858R, cells depend on it); experiment: CellTiter-Glo proliferation, Ba/F3-FL-EGFR-L858R-T790M-C797S; type: cell-based; conditions: 72 hours, read-out: Ba/F3-FL-EGFR-L858R-T790M-C797S IC50/nM
Description: as §1, §2, §3, §4, §5, §6, §7

EGFR (L858R/T790M/C797S) = EGFR (L858R/T790M/C797S) (Homo sapiens, UniProt P00533, C797S/L858R/T790M); experiment: MSA (Mobility Shift Assay) kinase activity, EGFR-L858R-T790M-C797S; type: biochemical
Description: as §8, §9, §10, §11, §12

EGFR (L858R) = EGFR (L858R) (Homo sapiens, UniProt P00533, L858R); experiment: MSA (Mobility Shift Assay) kinase activity, EGFR-L858R; type: biochemical
Description: as §8, §9, §10, §11, §12

[3] = test system: Ba/F3-FL-EGFR-del19-C797S; experiment: CellTiter-Glo proliferation, Ba/F3-FL-EGFR-del19-C797S; type: cell-based; conditions: proliferation, 72 hours, CellTiter-Glo, read-out: Ba/F3-FL-EGFR-del19-C797S IC50/nM
Description: as §1, §2, §3, §4, §5, §6, §7

T1 sequence (P00533 whole entry, change not shown): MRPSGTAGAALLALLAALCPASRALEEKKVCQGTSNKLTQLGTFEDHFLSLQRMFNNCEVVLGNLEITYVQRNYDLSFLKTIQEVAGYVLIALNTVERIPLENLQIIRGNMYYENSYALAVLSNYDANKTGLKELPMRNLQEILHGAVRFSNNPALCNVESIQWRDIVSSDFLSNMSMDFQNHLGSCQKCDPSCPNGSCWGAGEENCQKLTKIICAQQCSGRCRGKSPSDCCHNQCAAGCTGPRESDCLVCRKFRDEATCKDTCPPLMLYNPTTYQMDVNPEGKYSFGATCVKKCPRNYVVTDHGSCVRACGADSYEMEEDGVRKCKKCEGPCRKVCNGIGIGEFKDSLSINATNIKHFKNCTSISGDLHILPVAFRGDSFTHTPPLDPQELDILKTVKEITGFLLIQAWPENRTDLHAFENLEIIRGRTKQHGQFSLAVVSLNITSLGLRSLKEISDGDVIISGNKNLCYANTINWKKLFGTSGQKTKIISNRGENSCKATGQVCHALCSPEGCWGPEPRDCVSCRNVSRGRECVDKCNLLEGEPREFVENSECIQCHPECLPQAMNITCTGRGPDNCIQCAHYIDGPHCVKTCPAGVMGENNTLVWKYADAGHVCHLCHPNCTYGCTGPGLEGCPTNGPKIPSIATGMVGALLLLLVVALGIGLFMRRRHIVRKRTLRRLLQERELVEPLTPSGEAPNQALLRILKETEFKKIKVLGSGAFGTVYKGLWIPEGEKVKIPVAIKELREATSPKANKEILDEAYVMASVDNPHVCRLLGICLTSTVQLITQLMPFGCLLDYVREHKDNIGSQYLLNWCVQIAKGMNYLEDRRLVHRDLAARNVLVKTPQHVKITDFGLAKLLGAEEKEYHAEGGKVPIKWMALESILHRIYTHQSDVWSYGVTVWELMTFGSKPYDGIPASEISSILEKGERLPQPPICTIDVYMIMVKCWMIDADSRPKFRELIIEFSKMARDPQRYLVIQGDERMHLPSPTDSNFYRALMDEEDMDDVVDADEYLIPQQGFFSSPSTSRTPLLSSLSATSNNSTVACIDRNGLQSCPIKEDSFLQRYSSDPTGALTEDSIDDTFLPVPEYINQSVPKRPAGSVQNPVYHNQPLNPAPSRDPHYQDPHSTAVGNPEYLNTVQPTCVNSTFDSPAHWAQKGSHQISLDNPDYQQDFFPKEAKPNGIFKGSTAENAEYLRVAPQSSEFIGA
Chain of EGFR (wild-type) (P00533 25-1210): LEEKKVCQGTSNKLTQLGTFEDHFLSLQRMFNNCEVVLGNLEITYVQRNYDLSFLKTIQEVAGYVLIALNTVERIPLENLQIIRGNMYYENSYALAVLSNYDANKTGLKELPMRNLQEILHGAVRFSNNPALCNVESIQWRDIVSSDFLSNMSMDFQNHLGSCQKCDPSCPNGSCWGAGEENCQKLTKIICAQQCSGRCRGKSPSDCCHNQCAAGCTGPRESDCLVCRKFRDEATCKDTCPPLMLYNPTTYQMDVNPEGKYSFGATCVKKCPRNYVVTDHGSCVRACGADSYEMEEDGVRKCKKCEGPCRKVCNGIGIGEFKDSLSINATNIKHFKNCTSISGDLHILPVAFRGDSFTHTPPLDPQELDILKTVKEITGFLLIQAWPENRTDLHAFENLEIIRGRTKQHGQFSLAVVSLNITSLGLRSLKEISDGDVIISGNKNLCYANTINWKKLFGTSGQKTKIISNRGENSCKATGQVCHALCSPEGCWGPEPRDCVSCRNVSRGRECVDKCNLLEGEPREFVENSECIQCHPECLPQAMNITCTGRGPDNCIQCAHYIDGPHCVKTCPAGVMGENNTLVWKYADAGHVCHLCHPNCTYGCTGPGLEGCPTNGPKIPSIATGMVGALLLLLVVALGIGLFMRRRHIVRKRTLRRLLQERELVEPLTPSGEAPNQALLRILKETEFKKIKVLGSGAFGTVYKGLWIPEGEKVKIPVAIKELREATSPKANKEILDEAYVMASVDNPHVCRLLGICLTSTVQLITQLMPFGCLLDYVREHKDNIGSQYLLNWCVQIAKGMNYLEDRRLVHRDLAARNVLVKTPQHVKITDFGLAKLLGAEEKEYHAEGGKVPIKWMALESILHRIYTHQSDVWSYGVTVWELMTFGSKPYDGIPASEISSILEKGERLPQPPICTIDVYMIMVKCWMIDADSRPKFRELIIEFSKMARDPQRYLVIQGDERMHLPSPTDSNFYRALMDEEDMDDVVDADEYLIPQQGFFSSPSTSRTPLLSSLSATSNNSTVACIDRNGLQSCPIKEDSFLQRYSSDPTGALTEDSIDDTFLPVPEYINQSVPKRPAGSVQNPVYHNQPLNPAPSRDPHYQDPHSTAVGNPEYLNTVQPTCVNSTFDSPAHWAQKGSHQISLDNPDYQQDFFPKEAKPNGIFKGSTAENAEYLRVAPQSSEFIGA
T2 sequence (P00533 whole entry C797S/L858R, the tested form may be a part): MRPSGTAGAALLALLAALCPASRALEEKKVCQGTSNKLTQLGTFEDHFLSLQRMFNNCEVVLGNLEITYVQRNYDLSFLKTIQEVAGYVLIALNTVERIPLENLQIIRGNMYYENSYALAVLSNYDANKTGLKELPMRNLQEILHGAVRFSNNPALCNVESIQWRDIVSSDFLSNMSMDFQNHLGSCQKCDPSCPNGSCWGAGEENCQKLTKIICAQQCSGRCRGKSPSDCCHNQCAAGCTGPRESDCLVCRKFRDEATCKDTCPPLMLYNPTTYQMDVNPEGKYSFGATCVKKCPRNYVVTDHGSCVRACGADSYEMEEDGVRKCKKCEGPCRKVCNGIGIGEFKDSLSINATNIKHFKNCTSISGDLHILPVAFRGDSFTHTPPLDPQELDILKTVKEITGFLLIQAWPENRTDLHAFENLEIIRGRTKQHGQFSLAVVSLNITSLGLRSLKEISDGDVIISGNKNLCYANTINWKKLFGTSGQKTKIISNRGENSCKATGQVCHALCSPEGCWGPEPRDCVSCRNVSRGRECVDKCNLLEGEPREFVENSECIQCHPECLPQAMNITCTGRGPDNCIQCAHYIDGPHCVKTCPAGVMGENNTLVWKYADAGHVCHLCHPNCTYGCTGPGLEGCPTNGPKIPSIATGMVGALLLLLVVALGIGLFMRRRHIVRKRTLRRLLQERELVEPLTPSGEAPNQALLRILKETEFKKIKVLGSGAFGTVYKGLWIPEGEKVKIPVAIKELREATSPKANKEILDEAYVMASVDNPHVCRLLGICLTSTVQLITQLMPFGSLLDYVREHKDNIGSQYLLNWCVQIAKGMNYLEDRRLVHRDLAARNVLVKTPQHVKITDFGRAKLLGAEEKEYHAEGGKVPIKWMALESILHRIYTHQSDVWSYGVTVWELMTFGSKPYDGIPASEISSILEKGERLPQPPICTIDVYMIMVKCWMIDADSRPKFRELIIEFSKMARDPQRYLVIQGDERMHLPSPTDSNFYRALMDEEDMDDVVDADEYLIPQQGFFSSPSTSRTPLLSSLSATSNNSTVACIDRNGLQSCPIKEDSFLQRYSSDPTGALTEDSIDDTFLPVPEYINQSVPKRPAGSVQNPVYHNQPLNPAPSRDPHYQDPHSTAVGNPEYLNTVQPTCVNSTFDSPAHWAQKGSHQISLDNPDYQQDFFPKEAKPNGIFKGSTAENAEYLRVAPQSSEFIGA
Chain of EGFR (L858R/T790M/C797S) (P00533 25-1210 T790M/C797S/L858R): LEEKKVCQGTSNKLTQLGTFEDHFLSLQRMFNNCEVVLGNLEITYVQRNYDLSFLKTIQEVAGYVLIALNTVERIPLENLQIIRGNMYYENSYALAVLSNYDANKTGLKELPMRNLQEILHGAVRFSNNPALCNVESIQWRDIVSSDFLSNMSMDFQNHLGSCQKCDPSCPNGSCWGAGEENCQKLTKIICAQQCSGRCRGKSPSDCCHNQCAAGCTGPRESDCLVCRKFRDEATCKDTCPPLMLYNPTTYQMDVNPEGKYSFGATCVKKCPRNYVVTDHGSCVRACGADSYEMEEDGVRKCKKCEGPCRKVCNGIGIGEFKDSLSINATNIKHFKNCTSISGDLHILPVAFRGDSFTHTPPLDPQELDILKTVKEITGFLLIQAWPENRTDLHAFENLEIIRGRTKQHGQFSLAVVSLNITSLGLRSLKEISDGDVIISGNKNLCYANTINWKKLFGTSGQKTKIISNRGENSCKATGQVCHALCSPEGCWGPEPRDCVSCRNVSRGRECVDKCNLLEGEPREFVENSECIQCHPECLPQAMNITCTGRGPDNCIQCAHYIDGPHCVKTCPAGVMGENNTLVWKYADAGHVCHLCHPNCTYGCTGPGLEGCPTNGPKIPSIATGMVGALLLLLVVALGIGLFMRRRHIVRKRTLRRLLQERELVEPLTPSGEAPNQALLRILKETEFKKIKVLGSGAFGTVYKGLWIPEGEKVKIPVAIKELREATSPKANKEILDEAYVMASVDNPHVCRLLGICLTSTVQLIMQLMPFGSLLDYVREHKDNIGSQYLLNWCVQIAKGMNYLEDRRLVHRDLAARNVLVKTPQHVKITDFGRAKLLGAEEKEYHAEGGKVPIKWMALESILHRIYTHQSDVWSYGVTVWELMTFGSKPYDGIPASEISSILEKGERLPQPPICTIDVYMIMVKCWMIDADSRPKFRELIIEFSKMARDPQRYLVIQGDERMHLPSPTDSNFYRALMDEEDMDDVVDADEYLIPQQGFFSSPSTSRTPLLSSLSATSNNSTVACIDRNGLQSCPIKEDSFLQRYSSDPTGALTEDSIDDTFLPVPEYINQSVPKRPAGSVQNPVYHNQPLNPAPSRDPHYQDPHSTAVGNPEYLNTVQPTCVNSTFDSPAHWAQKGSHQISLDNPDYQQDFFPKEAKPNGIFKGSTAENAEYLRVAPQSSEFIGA

GI50 (Ba/F3-FL-EGFR-L858R) [nM] | IC50 (EGFR (L858R/C797S)) [nM] | GI50 (Ba/F3-FL-EGFR) [nM] | GI50 [1] [nM] | IC50 (EGFR (wild-type)) [nM] | GI50 [2] [nM] | IC50 (EGFR (L858R/T790M/C797S)) [nM] | IC50 (EGFR (L858R)) [nM] | IC50 ([3]; 72 h) [nM] | IC50 [3] [nM] | Structure (SMILES)
42 | 1.22 | 618 | 15 | 5.1 | 11 | 0.08 | 0.77 | 71 |  | CC(C)c1ccc(N2C[C@H](NS(C)(=O)=O)[C@H]2C)c2cnc(Nc3ccnc(N4CCC(O)C(F)C4)n3)cc12 (some centres unmarked) [Compound P25]
771 | 22 | 7380 | 271 | 50.5 | 554 | 0.21 | 14 |  |  | CC(C)c1ccc(N2CC(CC(N)=O)C2)c2cnc(Nc3ccnc(N4CCC(O)C(F)C4)n3)cc12 (centres unmarked) [Compound P7]
181 | 7.6 | 2780 | 61 | 20.7 | 38 | 0.18 | 4.1 | 265 |  | CC(C)c1ccc(N2CC(NS(C)(=O)=O)C2)c2cnc(Nc3ccnc(N4CCC(O)C(C)(F)C4)n3)cc12 (centres unmarked) [Compound P45]
86 | 4.2 | 1750 | 28 | 13.4 | 63 | 0.12 | 2.5 | 181 |  | CC(C)c1ccc(N2CC(NS(C)(=O)=O)C2)c2cnc(Nc3ccnc(N4CCC(C)(O)C(F)C4)n3)cc12 (centres unmarked) [Compound P51]
208 | 9.3 | 3110 | 88 | 41.8 | 271 | 0.61 | 6.2 |  | 308 | CC(C)c1ccc(N2CC(NS(C)(=O)=O)C2)c2cnc(Nc3ccnc(N4CCC(O)C(C)(F)C4)n3)cc12 (centres unmarked) [Compound P46]
176 | 11 | 2020 | 52 | 30.2 | 38 | 0.19 | 7.1 |  |  | CC(C)c1ccc(N2CC(CS(C)(=O)=O)C2)c2cnc(Nc3ccnc(N4CCC(O)C(F)C4)n3)cc12 (centres unmarked) [Control A, reference compound]
 | > 100 |  |  | > 100 |  | 3.4 | > 100 |  |  | CC(C)c1ccc(N2CC(CP(C)(C)=O)C2)c2cnc(Nc3ccnc(N4CCC(O)C(F)C4)n3)cc12 (centres unmarked) [Compound P9]
73 | 5 | 658 | 46 | 7.3 | 150 | 0.6 | 2.6 | 69 |  | CC(C)c1ccc(N2CC(CS(C)(=O)=O)C2)c2cnc(Nc3ccnc(-c4cnn(S(=O)(=O)C5(C)CC5)c4)n3)cc12 [Compound H18]
 | 8.2 |  |  | 33.8 |  | 0.11 | 7.8 |  |  | CC(C)c1ccc(N2CC(NS(=O)(=O)C3CC3)C2)c2cnc(Nc3ccnc(N4CCC(O)C(F)C4)n3)cc12 (centres unmarked) [Compound P23]
 | 83.3 |  |  | > 100 |  | 0.97 | 67.8 |  |  | CC(C)c1ccc(N2CC(CS(C)(=O)=O)C2(C)C)c2cnc(Nc3ccnc(N4CCC(O)C(F)C4)n3)cc12 (centres unmarked) [Compound P8]

More lines, now with the values behind:

Structure (SMILES) | GI50 (Ba/F3-FL-EGFR-L858R) [nM] | IC50 (EGFR (L858R/C797S)) [nM] | GI50 (Ba/F3-FL-EGFR) [nM] | GI50 [1] [nM] | IC50 (EGFR (wild-type)) [nM] | GI50 [2] [nM] | IC50 (EGFR (L858R/T790M/C797S)) [nM] | IC50 (EGFR (L858R)) [nM] | IC50 ([3]; 72 h) [nM] | IC50 [3] [nM]
CC(C)c1ccc(N2CC3(CC(S(C)(=O)=O)C3)C2)c2cnc(Nc3ccnc(-c4cnn(S(=O)(=O)C5CC5)c4)n3)cc12 [Compound P3] | 55 | 10.6 | 889 | 43 | 17.9 | 248 | 0.71 | 5.8 |  | 
CC(C)c1ccc(N2CC(CS(C)(=O)=O)C2)c2cnc(Nc3ccnc(-c4cnn(S(=O)(=O)C5CCC5)c4)n3)cc12 [Compound H13] | 44 | 2.5 | 640 | 18 | 11.4 | 158 | 0.91 | 1.8 | 23 | 
CC(C)c1ccc(N2CC(CS(C)(=O)=O)C2)c2cnc(Nc3ccnc(-c4cnn(S(=O)(=O)C5CCOCC5)c4)n3)cc12 [Compound H10] | 94 | 7.2 | 1080 | 54 | 30.3 | 219 | 0.34 | 8.1 | 101 | 
CC(C)c1ccc(N2CC(CS(C)(=O)=O)C2)c2cnc(Nc3ccnc(-c4cnn(CC(F)(F)F)c4)n3)cc12 [Compound H11] | 40 | 5.1 | > 10000 | 37 | 24.3 | 123 | 0.44 | 5.8 | 97 | 
CCCS(=O)(=O)n1cc(-c2nccc(Nc3cc4c(C(C)C)ccc(N5CC(CS(C)(=O)=O)C5)c4cn3)n2)cn1 [Compound H6] |  | 2.2 | 559 | 40 | 5.2 | 90 | 0.3 | 1.5 |  | 48
CC(C)c1ccc(N2CC(CC(N)=O)C2)c2cnc(Nc3ccnc(-c4cnn(S(=O)(=O)C5CC5)c4)n3)cc12 [Compound H4] | 46 | 2.9 | 628 | 39 | 6.1 | 146 | 0.3 | 2.1 |  | 
CC(C)c1ccc(N2CC(CS(C)(=O)=O)C2)c2cnc(Nc3ccnc(-c4cn[nH]c4)n3)cc12 [Compound H3] |  | 4.7 | 854 | 188 | 11.7 | 462 | 0.7 | 5.6 |  | 216
CC(C)n1c(=O)cc(N2CC(CS(C)(=O)=O)C2)c2cnc(Nc3ccnc(N4CCC(O)C(F)C4)n3)cc21 (centres unmarked) [Compound P14] |  | 11.8 |  |  | 80.7 |  | 0.12 | 9.5 |  | 
CC(C)c1cc(C(F)(F)F)c(N2CC3(CC(CS(C)(=O)=O)C3)C2)c2cnc(Nc3ccnc(N4CCC(O)C(F)C4)n3)cc12 (centres unmarked) [Compound P5] |  | > 100 |  |  | > 100 |  | 7.1 | > 100 |  | 
